US8247612B2, “Organic sulfur compound and its use for controlling harmful arthropod” (Sumitomo Chemical Company, Limited, priority 2007, dated 2012)

Experiments:
Assay type in all cases: in vivo
Culex pipiens pallens = assay: Test Example 4: larvae in treated water, death rate of Culex pipiens pallens; conditions: 24 h, active ingredient concentration 3.5 ppm in water, 20 last-instar larvae, after one day
Protocol: Preparations of the present compounds (1), (2), (3), (4), (5), (6), (9), (10), (11), (12), (14), (15), (16), (17), (19), (20), (22), (23), (24), (26), (27), (28), (29), (30) and (31) obtained according to Formulation Example 36 were diluted so that the active ingredient concentration was 500 ppm to obtain test solutions. To 100 mL of ion-exchanged water, 0.7 ml of the test solution was added (active ingredient concentration: 3.5 ppm). Into the solution, 20 last-instar larvae of Culex pipiens pallens were released. After one day, the number of surviving Culex pipiens pallens was examined and the death rate of the pest was calculated. As a result, in treatments with the present compounds (1), (2), (3), (4), (5), (6), (9), (10), (11), (12), (14), (15), (16), (17), (19), (20), (22), (23), (24), (26), (27), (28), (29), (30) and (31), the death rate of the pest was 90% or more.

Blattalla germanica = assay: Test Example 3: treated filter paper with sucrose bait, death rate of Blattalla germanica; conditions: 144 h; 500 ppm test solution, 0.7 ml on filter paper; 2 male imagoes; after 6 days
Protocol: (§1) Preparations of the present compounds (2), (3), (5), (6), (10), (11), (12), (14), (15), (16), (17), (19), (20), (24), (25), (26), (29), (30) and (31) obtained according to Formulation Example 36 were diluted so that the active ingredient concentration was 500 ppm to obtain test solutions.
(§2) A filter paper having a diameter of 5.5 cm was spread on the bottom of a polyethylene cup having a diameter of 5.5 cm and 0.7 ml of the test solution was added dropwise onto the filter paper. As a bait 30 mg of sucrose was uniformly placed on the filter paper. Into the polyethylene cup, 2 male imagoes of Blattalla germanica were released and the cup was sealed with a lid. After 6 days, the number of surviving Blattalla germanica was examined and the death rate of the pest was calculated.
As a result, in treatments with the present compounds (2), (3), (5), (6), (10), (11), (12), (14), (15), (16), (17), (19), (20), (24), (25), (26), (29), (30) and (31), the death rate of the pest was 100%.

Musca domestica = assay: Test Example 2: treated filter paper with sucrose bait, death rate of Musca domestica; conditions: 500 ppm test solution, 0.7 ml on filter paper, 10 female imagoes, after 24 hours
Protocol: as §1, with “(6), (9),” for “(6),”, “(12), (13),” for “(12),”, “(26), (28),” for “(26),”
as §2, with “10 female” for “2 male”, “Musca domestica” for “Blattalla germanica”, “24 hours,” for “6 days,”
As a result, in treatments with the present compounds (2), (3), (5), (6), (9), (10), (11), (12), (13), (14), (15), (16), (17), (19), (20), (24), (25), (26), (28), (29), (30) and (31), the death rate of the pest was 70% or more.

[1] = system: Haemaphysalis longicornis; assay: Test Example 5: treated filter paper pouch, death rate of ticks; conditions: filter paper treated with 100 mg/m^2; non-blood-sucking nymphal ticks, 10 ticks/group; after 2 days
Protocol: Five milligrams of any one of the present compounds (3), (10), (14), (15), (16) and (17) was dissolved in 10 mL of acetone. One milliliter of the acetone solution was uniformly applied on one side of a filter paper (TOYO No. 2; 5×10 cm), so that the filter paper was treated with 100 mg/m^2 of the present compound. After drying, the filter paper was folded in two and its edges were clipped to make a pouch. Non-blood-sucking nymphal ticks (Haemaphysalis longicornis, 10 ticks/group) were put into the pouch, and the pouch was sealed with clips. After 2 days, the number of surviving ticks was examined and the death rate was calculated. As a result, in treatments with the present compounds (3), (10), (14), (15), (16) and (17), the death rate of the tick was 90%.

SMILES	pest or weed control at 3.5 ppm (Culex pipiens pallens) [%]	pest or weed control at 500 ppm (Blattalla germanica) [%]	pest or weed control at 500 ppm (Musca domestica) [%]	death rate of the tick [1] [%]
COC(=O)C(CCC(C)C(F)(F)F)S(=O)(=O)CCC(F)(F)F (stereo not shown) [present compound (1), methyl 6,6,6-trifluoro-5-methyl-2-(3,3,3-trifluoropropylsulfonyl)hexanoate]	≥ 90	–	–	–
COC(=O)C(Cl)(CCC(C)C(F)(F)F)S(=O)(=O)CCC(F)(F)F (stereo not shown) [present compound (2), methyl 2-chloro-6,6,6-trifluoro-5-methyl-2-(3,3,3-trifluoropropylsulfonyl)hexanoate]	≥ 90	100	≥ 70	–
CC(CCC(Cl)(C(N)=O)S(=O)(=O)CCC(F)(F)F)C(F)(F)F (stereo not shown) [present compound (3), 2-chloro-6,6,6-trifluoro-5-methyl-2-(3,3,3-trifluoropropylsulfonyl)hexanamide]	≥ 90	100	≥ 70	90
CCC(CCC(C(=O)OC)S(=O)(=O)CCC(F)(F)F)C(F)(F)F (stereo not shown) [present compound (4), methyl 5-trifluoromethyl-2-(3,3,3-trifluoropropylsulfonyl)heptanoate]	≥ 90	–	–	–
CCC(CCC(Cl)(C(=O)OC)S(=O)(=O)CCC(F)(F)F)C(F)(F)F (stereo not shown) [present compound (5), methyl 2-chloro-5-trifluoromethyl-2-(3,3,3-trifluoropropylsulfonyl)heptanoate]	≥ 90	100	≥ 70	–
CCC(CCC(Cl)(C(N)=O)S(=O)(=O)CCC(F)(F)F)C(F)(F)F (stereo not shown) [present compound (6), 2-chloro-5-trifluoromethyl-2-(3,3,3-trifluoropropylsulfonyl)heptanamide]	≥ 90	100	≥ 70	–
CC(C)(C)C(CCC(Cl)(C(N)=O)S(=O)(=O)CCC(F)(F)F)C(F)(F)F (stereo not shown) [present compound (9), 2-chloro-6,6-dimethyl-5-trifluoromethyl-2-(3,3,3-trifluoropropylsulfonyl)heptanamide]	≥ 90	–	≥ 70	–
CCC(CCC(F)(C(=O)OC)S(=O)(=O)CCC(F)(F)F)C(F)(F)F (stereo not shown) [present compound (11), methyl 2-fluoro-5-(trifluoromethyl)-2-(3,3,3-trifluoropropylsulfonyl)heptanoate]	≥ 90	100	≥ 70	–
CCC(CCC(F)(C(N)=O)S(=O)(=O)CCC(F)(F)F)C(F)(F)F (stereo not shown) [present compound (12), 2-fluoro-5-(trifluoromethyl)-2-(3,3,3-trifluoropropylsulfonyl)heptanamide]	≥ 90	100	≥ 70	–
CCC(CCC(C)(C(N)=O)S(=O)(=O)CCC(F)(F)F)C(F)(F)F (stereo not shown) [present compound (13), 2-methyl-5-(trifluoromethyl)-2-(3,3,3-trifluoropropylsulfonyl)heptanamide]	–	–	≥ 70	–
COC(=O)C(Cl)(CCC(C(C)C)C(F)(F)F)S(=O)(=O)CCC(F)(F)F (stereo not shown) [present compound (19), methyl 2-chloro-6-methyl-5-(trifluoromethyl)-2-(3,3,3-trifluoropropylsulfonyl)heptanoate]	≥ 90	100	≥ 70	–
CC(C)C(CCC(Cl)(C(N)=O)S(=O)(=O)CCC(F)(F)F)C(F)(F)F (stereo not shown) [present compound (20), 2-chloro-6-methyl-5-(trifluoromethyl)-2-(3,3,3-trifluoropropylsulfonyl)heptanamide]	≥ 90	100	≥ 70	–
CCCC(CCC(Cl)(C(=O)OC)S(=O)(=O)CCC(F)(F)F)C(F)(F)F (stereo not shown) [present compound (22), methyl 2-chloro-5-(trifluoromethyl)-2-(3,3,3-trifluoropropylsulfonyl)octanoate]	≥ 90	–	–	–
CCCC(CCC(Cl)(C(N)=O)S(=O)(=O)CCC(F)(F)F)C(F)(F)F (stereo not shown) [present compound (23), 2-chloro-5-(trifluoromethyl)-2-(3,3,3-trifluoropropylsulfonyl)octanamide]	≥ 90	–	–	–
COC(=O)C(CCC(OC)C(F)(F)F)S(=O)(=O)CCC(F)(F)F (stereo not shown) [present compound (24), methyl 6,6,6-trifluoro-5-methoxy-2-(3,3,3-trifluoropropylsulfonyl)hexanoate]	≥ 90	100	≥ 70	–
COC(=O)C(Cl)(CCC(OC)C(F)(F)F)S(=O)(=O)CCC(F)(F)F (stereo not shown) [present compound (25), methyl 2-chloro-6,6,6-trifluoro-5-methoxy-2-(3,3,3-trifluoropropylsulfonyl)hexanoate]	–	100	≥ 70	–
COC(CCC(Cl)(C(N)=O)S(=O)(=O)CCC(F)(F)F)C(F)(F)F (stereo not shown) [present compound (26), 2-chloro-6,6,6-trifluoro-5-methoxy-2-(3,3,3-trifluoropropylsulfonyl)hexanamide]	≥ 90	100	≥ 70	–
COC(=O)C(CCC(SC)C(F)(F)F)S(=O)(=O)CCC(F)(F)F (stereo not shown) [present compound (27), methyl 6,6,6-trifluoro-5-methylthio-2-(3,3,3-trifluoropropylsulfonyl)hexanoate]	≥ 90	–	–	–
COC(=O)C(Cl)(CCC(SC)C(F)(F)F)S(=O)(=O)CCC(F)(F)F (stereo not shown) [present compound (28), methyl 2-chloro-6,6,6-trifluoro-5-methylthio-2-(3,3,3-trifluoropropylsulfonyl)hexanoate]	≥ 90	–	≥ 70	–
CSC(CCC(Cl)(C(N)=O)S(=O)(=O)CCC(F)(F)F)C(F)(F)F (stereo not shown) [present compound (29), 2-chloro-6,6,6-trifluoro-5-methylthio-2-(3,3,3-trifluoropropylsulfonyl)hexanamide]	≥ 90	100	≥ 70	–
CSC(CCC(C#N)S(=O)(=O)CCC(F)(F)F)C(F)(F)F (stereo not shown) [present compound (30), 6,6,6-trifluoro-5-methylthio-2-(3,3,3-trifluoropropylsulfonyl)hexanenitrile]	≥ 90	100	≥ 70	–
CC(CCC(Cl)(C(N)=O)S(=O)(=O)CCC(F)(F)F)C(F)(F)C(F)(F)F (stereo not shown) [present compound (31), 2-chloro-6,6,7,7,7-pentafluoro-5-methyl-2-(3,3,3-trifluoropropylsulfonyl)heptanamide]	≥ 90	100	≥ 70	–
